In ChEMBL document CHEMBL3351686, “Facile and diastereoselective synthesis of 3,2'-spiropyrrolidine-oxindoles derivatives, their molecular docking and antiproliferative activities” (2015):
In brackets after ≈: the same amount, converted by molar mass.

How the values were obtained:
Micrococcus luteus [1] = test: Antibacterial activity against Micrococcus luteus MTCC 106 assessed as inhibition of visual growth after 24 hrs; format: functional; details: MTCC 106, 24 h
Salmonella typhimurium [2] = test: Antibacterial activity against Salmonella typhimurium MTCC 1251 assessed as zone of inhibition at 1 mg/disc after 24 hrs by disc diffusion method; format: functional, Salmonella enterica subsp. enterica serovar Typhimurium
Salmonella typhimurium [3] = test: Antibacterial activity against Salmonella typhimurium MTCC 1251 assessed as inhibition of visual growth after 24 hrs; format: functional, Salmonella enterica subsp. enterica serovar Typhimurium; details: Salmonella enterica, MTCC 1251, 24 h
Shigella flexneri [4] = test: Antibacterial activity against Shigella flexneri MTCC 1457 assessed as inhibition of visual growth after 24 hrs; format: functional; details: MTCC 1457, 24 h
Proteus vulgaris [5] = test: Antibacterial activity against Proteus vulgaris MTCC 1771 assessed as zone of inhibition at 1 mg/disc after 24 hrs by disc diffusion method; format: functional
Staphylococcus aureus [6] = test: Antibacterial activity against Staphylococcus aureus MTCC 96 assessed as zone of inhibition at 1 mg/disc after 24 hrs by disc diffusion method; format: functional
Malassezia pachydermatis [7] = test: Antifungal activity against Malassezia pachydermatis assessed as inhibition of visual growth after 48 to 72 hrs; format: functional
[8] = test system: Staphylococcus epidermidis; test: Antibacterial activity against Staphylococcus epidermidis MTCC 3615 assessed as zone of inhibition at 1 mg/disc after 24 hrs by disc diffusion method; format: functional
Staphylococcus aureus [9] = test: Antibacterial activity against methicillin-resistant Staphylococcus aureus assessed as inhibition of visual growth after 24 hrs; format: functional
Klebsiella pneumoniae [10] = test: Antibacterial activity against Klebsiella pneumoniae MTCC 109 assessed as inhibition of visual growth after 24 hrs; format: functional; details: MTCC 109, 24 h
Staphylococcus aureus [11] = test: Antibacterial activity against methicillin-resistant Staphylococcus aureus assessed as zone of inhibition at 1 mg/disc after 24 hrs by disc diffusion method; format: functional
Klebsiella aerogenes [12] = test: Antibacterial activity against Enterobacter aerogenes MTCC 111 assessed as zone of inhibition at 1 mg/disc after 24 hrs by disc diffusion method; format: functional
Staphylococcus aureus [13] = test: Antibacterial activity against Staphylococcus aureus MTCC 96 assessed as inhibition of visual growth after 24 hrs; format: functional; details: MTCC 96, 24 h
Proteus vulgaris [14] = test: Antibacterial activity against Proteus vulgaris MTCC 1771 assessed as inhibition of visual growth after 24 hrs; format: functional; details: MTCC 1771, 24 h
[15] = test system: Staphylococcus epidermidis; test: Antibacterial activity against Staphylococcus epidermidis MTCC 3615 assessed as inhibition of visual growth after 24 hrs; format: functional; details: MTCC 3615, 24 h
Candida albicans [16] = test: Antifungal activity against Candida albicans MTCC 227 assessed as zone of inhibition at 1 mg/disc after 48 hrs by disc diffusion method; format: functional
Klebsiella aerogenes [17] = test: Antibacterial activity against Enterobacter aerogenes MTCC 111 assessed as inhibition of visual growth after 24 hrs; format: functional; details: MTCC 111, 24 h
Candida albicans [18] = test: Antifungal activity against Candida albicans MTCC 227 assessed as inhibition of visual growth after 48 to 72 hrs; format: functional
Shigella flexneri [19] = test: Antibacterial activity against Shigella flexneri MTCC 1457 assessed as zone of inhibition at 1 mg/disc after 24 hrs by disc diffusion method; format: functional
Klebsiella pneumoniae [20] = test: Antibacterial activity against Klebsiella pneumoniae MTCC 109 assessed as zone of inhibition at 1 mg/disc after 24 hrs by disc diffusion method; format: functional
Micrococcus luteus [21] = test: Antibacterial activity against Micrococcus luteus MTCC 106 assessed as zone of inhibition at 1 mg/disc after 24 hrs by disc diffusion method; format: functional
Malassezia pachydermatis [22] = test: Antifungal activity against Malassezia pachydermatis assessed as zone of inhibition at 1 mg/disc after 48 hrs by disc diffusion method; format: functional

Structure (SMILES) | MIC (Micrococcus luteus [1]) [µg/mL] | inhibition zone (IZ) (Salmonella typhimurium [2]) [mm] | MIC (Salmonella typhimurium [3]) [µg/mL] | MIC (Shigella flexneri [4]) [µg/mL] | inhibition zone (IZ) (Proteus vulgaris [5]) [mm] | inhibition zone (IZ) (Staphylococcus aureus [6]) [mm] | MIC (Malassezia pachydermatis [7]) [µg/mL] | inhibition zone (IZ) [8] [mm] | MIC (Staphylococcus aureus [9]) [µg/mL] | MIC (Klebsiella pneumoniae [10]) [µg/mL] | inhibition zone (IZ) (Staphylococcus aureus [11]) [mm] | inhibition zone (IZ) (Klebsiella aerogenes [12]) [mm] | MIC (Staphylococcus aureus [13]) [µg/mL] | MIC [15] [µg/mL] | inhibition zone (IZ) (Candida albicans [16]) [mm] | MIC (Klebsiella aerogenes [17]) [µg/mL] | MIC (Candida albicans [18]) [µg/mL] | inhibition zone (IZ) (Shigella flexneri [19]) [mm] | inhibition zone (IZ) (Klebsiella pneumoniae [20]) [mm] | inhibition zone (IZ) (Micrococcus luteus [21]) [mm] | other results
N#C[C@]1(C(=O)c2c[nH]c3ccccc23)C2CCCN2[C@]2(C(=O)Nc3ccc([N+](=O)[O-])cc32)[C@@H]1c1cn(-c2ccccc2)nc1-c1ccccc1 (some centres not stated) | 500 (≈ 758 µM) | 9 | 250 (≈ 379 µM) | 500 (≈ 758 µM) | 9 | 11 | 500 (≈ 758 µM) | 12 | 500 (≈ 758 µM) | 250 (≈ 379 µM) | 9 | 10 | 125 (≈ 189 µM) | 250 (≈ 379 µM) | 11 | 250 (≈ 379 µM) | 250 (≈ 379 µM) | 8 | 9 | 8 | MIC (Proteus vulgaris [14]): 125 µg/mL (≈ 189 µM)
N#C[C@]1(C(=O)c2c[nH]c3ccccc23)C2CCCN2[C@]2(C(=O)Nc3ccccc32)[C@@H]1c1cn(-c2ccccc2)nc1-c1ccccc1 (some centres not stated) | 31.2 (≈ 50.8 µM) | 8 | 250 (≈ 407 µM) | 31.2 (≈ 50.8 µM) | 12 | 12 | 500 (≈ 813 µM) | 13 | 31.2 (≈ 50.8 µM) | 31.2 (≈ 50.8 µM) | 10 | 12 | 31.2 (≈ 50.8 µM) | 62.5 (≈ 102 µM) | 10 | 62.5 (≈ 102 µM) | 125 (≈ 203 µM) | 10 | 9 | 11 | inhibition zone (IZ) (Malassezia pachydermatis [22]): 8 mm; MIC (Proteus vulgaris [14]): 125 µg/mL (≈ 203 µM)
C=CCN1C(=O)[C@]2(c3ccccc31)[C@H](c1cn(-c3ccccc3)nc1-c1ccccc1)[C@@](C#N)(C(=O)c1c[nH]c3ccccc13)C1CSCN12 (some centres not stated) | 500 (≈ 743 µM) | 10 | 250 (≈ 372 µM) | 500 (≈ 743 µM) | 10 | 12 | – | 11 | 500 (≈ 743 µM) | 500 (≈ 743 µM) | 9 | 9 | 250 (≈ 372 µM) | 125 (≈ 186 µM) | 12 | 250 (≈ 372 µM) | 250 (≈ 372 µM) | 9 | 9 | 11 | inhibition zone (IZ) (Malassezia pachydermatis [22]): 10 mm; MIC (Proteus vulgaris [14]): 500 µg/mL (≈ 743 µM)
CC(=O)N1CCN(c2ccc(OCC3COC(Cn4ccnc4)(c4ccc(Cl)cc4Cl)O3)cc2)CC1 (configuration not stated) [KETOCONAZOLE] | 6.25 (≈ 11.8 µM) | 18 | 30 (≈ 56.5 µM) | 6.25 (≈ 11.8 µM) | 30 | 14 | 25 (≈ 47 µM) | 14 | 6.25 (≈ 11.8 µM) | 6.25 (≈ 11.8 µM) | 30 | 22 | 6.25 (≈ 11.8 µM) | 6.25 (≈ 11.8 µM) | 28 | 25 (≈ 47 µM) | 25 (≈ 47 µM) | 30 | 20 | 26 | inhibition zone (IZ) (Malassezia pachydermatis [22]): 26 mm
N#C[C@]1(C(=O)c2c[nH]c3ccccc23)C2CSCN2[C@]2(C(=O)Nc3ccccc32)[C@@H]1c1cn(-c2ccccc2)nc1-c1ccccc1 (some centres not stated) | 500 (≈ 790 µM) | 11 | 500 (≈ 790 µM) | 500 (≈ 790 µM) | 10 | 14 | 250 (≈ 395 µM) | 13 | 500 (≈ 790 µM) | 500 (≈ 790 µM) | 8 | 13 | 500 (≈ 790 µM) | 500 (≈ 790 µM) | 9 | 500 (≈ 790 µM) | 1250 (≈ 1980 µM) | 8 | 10 | 11 | inhibition zone (IZ) (Malassezia pachydermatis [22]): 8 mm; MIC (Proteus vulgaris [14]): 500 µg/mL (≈ 790 µM)
